One assay has as its target T1, mTORC1 (Homo sapiens, UniProt P42345+P62942).
T1 construct: endogenous in cells; host or cells: PC3 cells (human prostate adenocarcinoma)
The experiment in a line: Inhibition assay for mTORC1: phosphorylation of pS6K at Thr389, AlphaLISA in PC3 cells. It counts as cell-based. Particulars: for IC50: read-out: pIC50 mTORC1 (converted). The procedure: (§1) The IC50s of the inhibition of mTORC1 and mTORC2 were determined in vitro by determining the phosphorylation of pS6K at position Thr389 (mTORC1 inhibition) and pAkt at Ser473 (mTORC2 inhibition). In vitro studies were performed with AlphaLISA® technology using PC3 cells (Prostate Adenocarcinoma; Human (Homo sapiens)). The cells were seeded in 96 well plates and were treated for 24 hours with the different compounds. […] All analysis were performed using GraphPad Prism 7.0 (GraphPad Software, San Diego, USA).

The target of a further assay is T2, mTORC2 (Homo sapiens, UniProt P42345+P62942).
T2 construct: endogenous in cells; host or cells: PC3 cells (human prostate adenocarcinoma)
T2 sequence (P62942 2-108 limits assumed, other chains not shown): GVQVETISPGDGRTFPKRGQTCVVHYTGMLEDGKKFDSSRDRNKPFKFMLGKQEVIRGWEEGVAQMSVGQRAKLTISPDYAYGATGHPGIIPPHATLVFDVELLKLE
The experiment in a line: Inhibition assay for mTORC2: phosphorylation of pAkt at Ser473, AlphaLISA in PC3 cells. It counts as cell-based. Particulars: for IC50: read-out: pIC50 mTORC2 (converted). The procedure: as §1
For orientation: Alpha assays give light when donor and acceptor beads are brought close together.

Where [1] appears, read: PC3 cells, treated 24 hours, pS6K Thr389, AlphaLISA, C16 diastereomer mixtures not separated.
[2] abbreviates: PC3 cells, treated 24 hours, pAkt Ser473, AlphaLISA, C16 diastereomer mixtures not separated.

Where two headings read alike, the source gives them in different places.

Data on 19 compounds can be found in patent US11702429B2, “mTORC modulators and uses thereof” (Aeovian Pharmaceuticals, Inc., priority 2019, dated 2023).

With `COC1C[C@@H]2CC[C@@H](C)[C@@](O)(O2)C(=O)C(=O)N2CCCCC2C(=O)O[C@H]([C@H](C)C[C@@H]2CC[C@@H](OC(=O)NCCOCCOCCOCCOCCO)[C@H](OC)C2)CC(=O)[C@H](C)/C=C(\C)[C@@H](O)[C@@H](OC)C(=O)[C@H](C)C[C@H](C)/C=C/C=C/C=C/1C` (stereo partly shown) [Compound 347], the results for the IC50 at mTORC1 and at mTORC2 were < 0.000316 µM and < 1 µM, respectively. As to `CO[C@@H]1C[C@H](C[C@@H](C)[C@@H]2CC(=O)[C@H](C)/C=C(\C)[C@@H](O)[C@@H](OC)C(=O)[C@H](C)C[C@H](C)/C=C/C=C/C=C(\C)C(OCCC3CCOCC3)C[C@@H]3CC[C@@H](C)[C@@](O)(O3)C(=O)C(=O)N3CCCCC3C(=O)O2)CC[C@H]1O` (stereo partly shown) [Compound 213], the IC50 at mTORC1 was 0.000316 to 0.00316 µM; at mTORC2, 1 to 10 µM. The like results for `CO[C@@H]1C[C@H](C[C@@H](C)[C@@H]2CC(=O)[C@H](C)/C=C(\C)[C@@H](O)[C@@H](OC)C(=O)[C@H](C)C[C@H](C)/C=C/C=C/C=C(\C)C(OCCOCCO)C[C@@H]3CC[C@@H](C)[C@@](O)(O3)C(=O)C(=O)N3CCCCC3C(=O)O2)CC[C@H]1O` (stereo partly shown) [Compound 224] were, in that order, 0.000316 to 0.00316 µM and > 10 µM. Consider `COCCOC1CC2CCC(C)C(O)(O2)C(=O)C(=O)N2CCCCC2C(=O)OC(C(C)CC2CCC(OCCO)C(OC)C2)CC(=O)C(C)C=C(C)C(O)C(OC)C(=O)C(C)CC(C)C=CC=CC=C1C` (stereo not shown) [Compound 40], for which the “pIC50 mTORC1” value on mTORC1 (setting [1]) is on record as “A (pIC50 for mTORC1 of >9.5 as A)”. Moreover, the “pIC50 mTORC2” value on mTORC2 (setting [2]) is recorded as “B (5 to 6 as B)”. On to `CO[C@@H]1C[C@H](C[C@@H](C)[C@@H]2CC(=O)[C@H](C)/C=C(\C)[C@@H](O)[C@@H](OC)C(=O)[C@H](C)C[C@H](C)/C=C/C=C/C=C(\C)C(OCCO)C[C@@H]3CC[C@@H](C)[C@@](O)(O3)C(=O)C(=O)N3CCCC[C@H]3C(=O)O2)CC[C@H]1OCCCN1CCO[C@H](C)C1` (mixture of isomers) [Compound 13], for which the IC50 at mTORC1 (setting [1]) is < 0.000316 µM.

On to `CO[C@@H]1C[C@H](C[C@@H](C)[C@@H]2CC(=O)[C@H](C)/C=C(\C)[C@@H](O)[C@@H](OC)C(=O)[C@H](C)C[C@H](C)/C=C/C=C/C=C(\C)C(OCCO)C[C@@H]3CC[C@@H](C)[C@@](O)(O3)C(=O)C(=O)N3CCCC[C@H]3C(=O)O2)CC[C@H]1OCCN1CCCCC1` (mixture of isomers) [Compound 61], for which the IC50 was 0.000316 to 0.00316 µM on mTORC1 (setting [1]) and > 10 µM at mTORC2 (setting [2]). Turning to `CO[C@@H]1C[C@H](C[C@@H](C)[C@@H]2CC(=O)[C@H](C)/C=C(\C)[C@@H](O)[C@@H](OC)C(=O)[C@H](C)C[C@H](C)/C=C/C=C/C=C(\C)C(OC(C)C)C[C@@H]3CC[C@@H](C)[C@@](O)(O3)C(=O)C(=O)N3CCCCC3C(=O)O2)CC[C@H]1O` (stereo partly drawn) [Compound 208, (1R,9S,12S,15R,16E,18R,19R,21R,23S,24E,26E,28E,32S,35R)-1,18-dihydroxy-12-[(1R)-2-[(1S,3R,4R)-4-hydroxy-3-methoxy-cyclohexyl]-1-methyl-ethyl]-30-isopropoxy-19-methoxy-15,17,21,23,29,35-hexamethyl-11,36-dioxa-4-azatricyclo[30.3.1.0^4,9]hexatriaconta-16,24,26,28-tetraene-2,3,10,14,20-pentone], the values for the IC50 on mTORC1 and at mTORC2 were 0.000316 to 0.00316 µM and 1 to 10 µM, respectively.

Regarding `CO[C@@H]1C[C@H](C[C@@H](C)[C@@H]2CC(=O)[C@H](C)/C=C(\C)[C@@H](O)[C@@H](OC)C(=O)[C@H](C)C[C@H](C)/C=C/C=C/C=C(\C)C(OCCCCO)C[C@@H]3CC[C@@H](C)[C@@](O)(O3)C(=O)C(=O)N3CCCC[C@H]3C(=O)O2)CC[C@H]1OCCCN1CCOCC1` (mixture of isomers) [Compound 27], the IC50 is < 0.000316 µM at mTORC1 (setting [1]) and 1 to 10 µM on mTORC2 (setting [2]). For `COC1C[C@@H]2CC[C@@H](C)[C@@](O)(O2)C(=O)C(=O)N2CCCCC2C(=O)O[C@H]([C@H](C)C[C@@H]2CC[C@@H](OCCO)[C@H](OC)C2)CC(=O)[C@H](C)/C=C(\C)[C@@H](O)[C@@H](OC)C(=O)[C@H](C)C[C@H](C)/C=C/C=C/C=C/1C` (stereo partly shown) [Compound 306], the IC50 at mTORC1 was < 0.000316 µM; on mTORC2, < 1 µM. For `COC1C[C@@H]2CC[C@@H](C)[C@@](O)(O2)C(=O)C(=O)N2CCCCC2C(=O)O[C@H]([C@H](C)C[C@@H]2CC[C@@H](OCCOCCOCCO)[C@H](OC)C2)CC(=O)[C@H](C)/C=C(\C)[C@@H](O)[C@@H](OC)C(=O)[C@H](C)C[C@H](C)/C=C/C=C/C=C/1C` (stereo partly shown) [Compound 317] the same measures were < 0.000316 µM and < 1 µM. The like results for `COC1C[C@@H]2CC[C@@H](C)[C@@](O)(O2)C(=O)C(=O)N2CCCCC2C(=O)O[C@H]([C@H](C)C[C@@H]2CC[C@@H](OP(C)(C)=O)[C@H](OC)C2)CC(=O)[C@H](C)/C=C(\C)[C@@H](O)[C@@H](OC)C(=O)[C@H](C)C[C@H](C)/C=C/C=C/C=C/1C` (stereo partly shown) [Compound 342] were, in that order, < 0.000316 µM and < 1 µM. For `COC1C[C@@H]2CC[C@@H](C)[C@@](O)(O2)C(=O)C(=O)N2CCCCC2C(=O)O[C@H]([C@H](C)C[C@@H]2CC[C@@H](OCCCCN3CCOCC3)[C@H](OC)C2)CC(=O)[C@H](C)/C=C(\C)[C@@H](O)[C@@H](OC)C(=O)[C@H](C)C[C@H](C)/C=C/C=C/C=C/1C` (stereo partly shown) [Compound 300] the same measures were < 0.000316 µM and < 1 µM.

As to `COC1C[C@@H]2CC[C@@H](C)[C@@](O)(O2)C(=O)C(=O)N2CCCCC2C(=O)O[C@H]([C@H](C)C[C@@H]2CC[C@@H](OC(=O)N(CCO)CCO)[C@H](OC)C2)CC(=O)[C@H](C)/C=C(\C)[C@@H](O)[C@@H](OC)C(=O)[C@H](C)C[C@H](C)/C=C/C=C/C=C/1C` (stereo partly drawn) [Compound 357, [(1R,2R,4S)-4-[(2R)-2-[(1R,9S,12S,15R,16E,18R,19R,21R,23S,24E,26E,28E,30S,32S,35R)-1,18-dihydroxy-19,30-dimethoxy-15,17,21,23,29,35-hexamethyl-2,3,10,14,20-pentaoxo-11,36-dioxa-4-azatricyclo[30.3.1.0^4,9]hexatriaconta-16,24,26,28-tetraen-12-yl]propyl]-2-methoxy-cyclohexyl] N,N-bis(2-hydroxyethyl)carbamate], the IC50 is < 0.000316 µM on mTORC1 and < 1 µM at mTORC2. On to `CO[C@@H]1C[C@H](C[C@@H](C)[C@@H]2CC(=O)[C@H](C)/C=C(\C)[C@@H](O)[C@@H](OC)C(=O)[C@H](C)C[C@H](C)/C=C/C=C/C=C(\C)C(OC[C@H](O)c3ccccc3)C[C@@H]3CC[C@@H](C)[C@@](O)(O3)C(=O)C(=O)N3CCCCC3C(=O)O2)CC[C@H]1O` (stereo partly shown) [Compound 214], for which the IC50 is < 0.000316 µM at mTORC1 and 1 to 10 µM at mTORC2. Turning to `COC1C[C@@H]2CC[C@@H](C)[C@@](O)(O2)C(=O)C(=O)N2CCCCC2C(=O)O[C@H]([C@H](C)C[C@@H]2CC[C@@H](OCCCOCCO)[C@H](OC)C2)CC(=O)[C@H](C)/C=C(\C)[C@@H](O)[C@@H](OC)C(=O)[C@H](C)C[C@H](C)/C=C/C=C/C=C/1C` (stereo partly shown) [Compound 352], at mTORC1 (Rapamycin analogs substituted at C40, pS6K Thr389, PC3 cells, 24 hours treatment), the “pIC50 mTORC1” value is “A (pIC50 for mTORC1 of >9.5 as A)”. Moreover, the “pIC50 mTORC2” value at mTORC2 (Rapamycin analogs substituted at C40, pAkt Ser473, PC3 cells, 24 hours treatment) was “C (greater than 6 as C)”.

`COC1C[C@@H]2CC[C@@H](C)[C@@](O)(O2)C(=O)C(=O)N2CCCCC2C(=O)O[C@H]([C@H](C)C[C@@H]2CC[C@@H](OC(=O)NCCCN3CCCCC3)[C@H](OC)C2)CC(=O)[C@H](C)/C=C(\C)[C@@H](O)[C@@H](OC)C(=O)[C@H](C)C[C@H](C)/C=C/C=C/C=C/1C` (stereo partly shown) [Compound 366]: the IC50 on mTORC1 was > 0.00316 µM; at mTORC2, 1 to 10 µM. For `CO[C@@H]1C[C@H](C[C@@H](C)[C@@H]2CC(=O)[C@H](C)/C=C(\C)[C@@H](O)[C@@H](OC)C(=O)[C@H](C)C[C@H](C)/C=C/C=C/C=C(\C)C(OCCCO)C[C@@H]3CC[C@@H](C)[C@@](O)(O3)C(=O)C(=O)N3CCCC[C@H]3C(=O)O2)CC[C@H]1OCCCc1ccccc1` (mixture of isomers) [Compound 67, (1R,9S,12SR,15R,16E,18R,19R,21R,23S,24E,26E,28E,32SR,35R)-1,18-dihydroxy-30-(3-hydroxypropoxy)-19-methoxy-12-[(1R)-2-[(1S,3R,4R)-3-methoxy-4-(3-phenylpropoxy)cyclohexyl]-1-methyl-ethyl]-15,17,21,23,29,35-hexamethyl-11,36-dioxa-4-azatricyclo[30.3.1.0^4,9]hexatriaconta-16,24,26,28-tetraene-2,3,10,14,20-pentone], the IC50 at mTORC1 (setting [1]) is 0.000316 to 0.00316 µM; at mTORC2 (setting [2]), > 10 µM. Turning to `CO[C@@H]1C[C@H](C[C@@H](C)[C@@H]2CC(=O)[C@H](C)/C=C(\C)[C@@H](O)[C@@H](OC)C(=O)[C@H](C)C[C@H](C)/C=C/C=C/C=C(\C)C(OCCCCO)C[C@@H]3CC[C@@H](C)[C@@](O)(O3)C(=O)C(=O)N3CCCCC3C(=O)O2)CC[C@H]1O` (stereo partly shown) [Compound 221], the IC50 at mTORC1 is < 0.000316 µM; at mTORC2 it was 1 to 10 µM.

Take `COC1C[C@@H]2CC[C@@H](C)[C@@](O)(O2)C(=O)C(=O)N2CCCCC2C(=O)O[C@H]([C@H](C)C[C@@H]2CC[C@@H](OC(=O)NCc3ccccn3)[C@H](OC)C2)CC(=O)[C@H](C)/C=C(\C)[C@@H](O)[C@@H](OC)C(=O)[C@H](C)C[C@H](C)/C=C/C=C/C=C/1C` (stereo partly shown) [Compound 333]: the values for the IC50 on mTORC1 and at mTORC2 were < 0.000316 µM and < 1 µM, respectively.
